According to patent US20240067657A1, “AMIDO-SUBSTITUTED PYRIDYL COMPOUNDS AND METHODS OF USE THEREOF FOR THE TREATMENT OF HERPESVIRUSES” (Merck Sharp & Dohme LLC, priority 2020, published 2024):
Where two headings read alike, the source gives them in different places.

How the values were obtained:
[1] = molecular target: T1, Human cytomegalovirus DNA polymerase (Human cytomegalovirus, UniProt P08546); test: HCMV polymerase assay (AlphaLISA, IC50); format: biochemical; conditions: polymerase assay of Example 190
T1 construct: made in house; host or cells: SF21 insect cells (baculovirus vector)
Method in brief: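 Baculovirus-expressed polymerase (HCMV 0.2 nM, VZV 0.4 nM final) preincubated 30 min at room temperature with compound in pH 7.5 HEPES buffer; reaction started with 1.6 nM DIG-primer/template and nM dNTPs including biotin-dUTP, run 60 min at 37° C. Incorporation detected by AlphaLISA; IC50 from 4-parameter fit.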

[2] = molecular target: T2, varicella zoster virus DNA polymerase (Varicella-zoster virus, UniProt P09252); test: VZV polymerase assay (AlphaLISA, IC50); format: biochemical; conditions: polymerase assay of Example 190
T2 construct: made in house; host or cells: SF21 insect cells (baculovirus vector)
Description: Human cytomegalovirus and varicella zoster virus DNA polymerases were expressed via baculovirus vector in SF21 cells and purified. Heterodimeric nucleic acid substrate used in the herpesvirus polymerase reactions was generated by annealing a 59-mer template to a 17-mer digoxigenin-labeled primer. Polymerase (HCMV final concentration of 0.2 nM; VZV final concentration of 0.4 nM) was combined with an inhibitor compound or DMSO in assay buffer (10 mM HEPES, pH 7.5, 25 mM KCl, 25 mM NaCl, 5 mM MgCl2, 5% glycerol, 0.67 mg/ml bovine serum albuminutes, and 1 mM tris(2-carboxyethyl)phosphine), and this mixture was pre-incubated for 30 minutes at room temperature in 384-well microtiter plates. The polymerization reaction was initiated by the addition of template/primer substrate (final concentration: 1.6 nM), and dNTPs (final concentration: 24 nM dCTP, 24 nMdGTP, 16 nM dATP, 16 nM dTTP, and 0.8 nM biotin-dUTP). After 60 minutes incubation at 37° C., reactions were terminated with quench buffer (25 mM HEPES pH 7.5, 100 mM NaCl, 0.25% Tween-20, 12 mM EDTA, and 1 mg/ml bovine serum albumin). Incorporation of biotinylated UTP was detected with 2.5-5 ug/ml anti-DIG AlphaLISA acceptor beads and 5-10 ug/ml streptavidin AlphaLISA donor beads (Perkin Elmer). Compound effects were normalized to the window defined by the controls (DMSO only and pre-quenched wells), and were fit using a 4-parameter algorithm to report an IC50.

[3] = tested on: VZV in MeWo or MRC5 cells; test: Viral qPCR assay VZV (V0/V1, V2/V3), EC50; format: cell-based
Method in brief: (§1)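 Infected cells added to compounds (10-point 3-fold series), ~72 h at 37 °C, then lysed; viral genomes by TaqMan qPCR against plasmid standard, normalized to PPIA in V0/V1 only, EC50 from 4-parameter fit. HCMV AD169, 0.05-0.1 pfu/cell, ± 50% FBS; VZV 0.04-0.1 pfu/cell; HSV-1 F 0.0005-0.004 pfu/cell.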

[4] = tested on: HCMV Strain AD169 in MRC-5 cells; test: Viral qPCR assay HCMV (V0/V1, V2/V3), EC50; format: cell-based
Method in brief: as §1

[5] = tested on: HSV-1 Strain F in Vero or MRC5 cells; test: Viral qPCR assay HSV-1 (V0/V1, V2/V3), EC50; format: cell-based
Method in brief: as §1

[6] = Human alphaherpesvirus 3, MRC5, MRC5 cells, 10%, read-out: VZV Cell (EC50) MRC5 10%
[7] = Human betaherpesvirus 5, AD169, MRC5, viral qPCR assay of Example 191, read-out: HCMV Cell (EC50)
[8] = Human alphaherpesvirus 1, MRC5, MRC5 cells, 10%, read-out: HSV1 Cell (EC50) MRC5 10%
[9] = Human alphaherpesvirus 1, Vero, VERO cells, 10%, read-out: HSV1 Cell (EC50) VERO 10%
[10] = Human alphaherpesvirus 3, MeWo, MEWO cells, 10%, read-out: VZV Cell (EC50) MEWO 10%

T1 sequence (P08546 whole entry): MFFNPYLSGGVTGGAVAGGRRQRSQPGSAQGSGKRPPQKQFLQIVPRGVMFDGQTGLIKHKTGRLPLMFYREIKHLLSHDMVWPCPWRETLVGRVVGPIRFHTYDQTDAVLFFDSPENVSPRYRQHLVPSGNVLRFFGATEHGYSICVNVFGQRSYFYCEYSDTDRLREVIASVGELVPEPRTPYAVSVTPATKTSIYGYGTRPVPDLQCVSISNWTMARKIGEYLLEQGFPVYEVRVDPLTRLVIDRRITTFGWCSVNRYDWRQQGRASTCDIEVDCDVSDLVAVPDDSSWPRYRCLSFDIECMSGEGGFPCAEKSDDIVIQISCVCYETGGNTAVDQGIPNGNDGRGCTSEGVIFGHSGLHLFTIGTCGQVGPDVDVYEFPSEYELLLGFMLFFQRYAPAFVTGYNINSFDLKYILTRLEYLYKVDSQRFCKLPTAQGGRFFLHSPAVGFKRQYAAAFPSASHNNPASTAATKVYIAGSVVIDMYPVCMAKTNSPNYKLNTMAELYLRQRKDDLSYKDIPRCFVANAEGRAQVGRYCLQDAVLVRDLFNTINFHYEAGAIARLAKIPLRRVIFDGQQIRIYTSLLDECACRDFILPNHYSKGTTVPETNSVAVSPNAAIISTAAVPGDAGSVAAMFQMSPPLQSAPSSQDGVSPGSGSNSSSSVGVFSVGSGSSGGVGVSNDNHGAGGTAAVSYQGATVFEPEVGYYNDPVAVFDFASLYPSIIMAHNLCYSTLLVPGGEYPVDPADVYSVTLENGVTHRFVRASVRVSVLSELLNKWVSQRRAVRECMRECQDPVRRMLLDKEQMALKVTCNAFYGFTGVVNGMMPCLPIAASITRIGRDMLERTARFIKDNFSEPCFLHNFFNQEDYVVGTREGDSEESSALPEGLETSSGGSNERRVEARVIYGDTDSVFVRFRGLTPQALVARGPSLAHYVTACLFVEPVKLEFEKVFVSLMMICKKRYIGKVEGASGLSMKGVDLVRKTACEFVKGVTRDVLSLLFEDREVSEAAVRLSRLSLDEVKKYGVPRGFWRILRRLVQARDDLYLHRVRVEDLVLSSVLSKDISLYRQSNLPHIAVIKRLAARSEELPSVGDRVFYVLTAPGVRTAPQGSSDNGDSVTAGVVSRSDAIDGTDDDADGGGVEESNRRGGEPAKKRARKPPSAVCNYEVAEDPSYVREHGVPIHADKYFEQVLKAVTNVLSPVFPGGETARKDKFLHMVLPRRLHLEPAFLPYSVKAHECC
T2 sequence (P09252 whole entry): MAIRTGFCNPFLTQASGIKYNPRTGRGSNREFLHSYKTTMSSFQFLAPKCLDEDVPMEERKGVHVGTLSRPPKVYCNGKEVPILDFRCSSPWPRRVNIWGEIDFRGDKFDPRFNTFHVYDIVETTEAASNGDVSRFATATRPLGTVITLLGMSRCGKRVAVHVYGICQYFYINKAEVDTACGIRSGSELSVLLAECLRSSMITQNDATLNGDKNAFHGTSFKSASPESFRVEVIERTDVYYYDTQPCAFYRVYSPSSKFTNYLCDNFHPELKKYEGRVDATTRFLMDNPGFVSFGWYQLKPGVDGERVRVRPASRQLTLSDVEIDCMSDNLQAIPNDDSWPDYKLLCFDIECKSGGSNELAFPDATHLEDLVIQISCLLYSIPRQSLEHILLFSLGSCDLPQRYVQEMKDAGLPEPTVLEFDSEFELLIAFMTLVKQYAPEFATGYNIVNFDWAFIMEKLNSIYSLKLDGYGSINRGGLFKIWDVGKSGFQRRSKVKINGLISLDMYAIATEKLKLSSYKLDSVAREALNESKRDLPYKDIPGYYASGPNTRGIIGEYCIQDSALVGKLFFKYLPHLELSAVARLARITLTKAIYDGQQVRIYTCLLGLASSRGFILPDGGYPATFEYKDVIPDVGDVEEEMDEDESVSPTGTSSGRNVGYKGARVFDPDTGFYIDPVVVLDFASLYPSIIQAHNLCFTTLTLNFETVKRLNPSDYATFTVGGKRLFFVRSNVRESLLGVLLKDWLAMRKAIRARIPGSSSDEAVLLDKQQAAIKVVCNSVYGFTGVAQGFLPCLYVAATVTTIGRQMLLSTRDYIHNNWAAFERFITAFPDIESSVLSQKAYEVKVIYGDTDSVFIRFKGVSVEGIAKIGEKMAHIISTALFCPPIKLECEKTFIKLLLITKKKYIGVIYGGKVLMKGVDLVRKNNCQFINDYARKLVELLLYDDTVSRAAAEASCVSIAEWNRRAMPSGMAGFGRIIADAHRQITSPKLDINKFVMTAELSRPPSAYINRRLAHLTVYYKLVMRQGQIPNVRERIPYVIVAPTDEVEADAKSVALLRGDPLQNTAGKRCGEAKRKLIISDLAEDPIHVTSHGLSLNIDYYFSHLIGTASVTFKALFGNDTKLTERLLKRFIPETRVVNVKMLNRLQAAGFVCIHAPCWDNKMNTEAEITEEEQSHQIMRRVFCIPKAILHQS

IC50 [1]	IC50 [2]	Structure (SMILES)	EC50 [3, 6]	EC50 [4, 7]	EC50 [5, 8]	EC50 [5, 9]	EC50 [3, 10]	EC50 ([3]; Human alphaherpesvirus 3, MeWo, read-out: VZV Cell (EC50) MEWO 10%)	EC50 ([4]; Human betaherpesvirus 5, AD169, MRC5, read-out: HCMV Cell (EC50))	EC50 ([5]; Human alphaherpesvirus 1, Vero, read-out: HSV1 Cell (EC50) VERO 10%)
1.42 nM	1.99 nM	Cn1cc(-c2cnc(C(=O)NCc3ccc(C#N)c(F)c3)cc2O[C@H]2CCN3C(=O)OC[C@@H]3C2)cn1 [Compound 93]	118 nM	66.7 nM	124 nM	241 nM				
223 nM	139 nM	Cc1cnn(-c2cnc(C(=O)NCc3ccc(Cl)cc3)cc2O[C@H]2CCN3C(=O)OC[C@@H]3C2)c1 [Compound 105]		1300 nM		655 nM	870 nM			
238 nM	232 nM	CS(=O)(=O)N1CCC(Oc2cc(C(=O)NCc3ccc(Cl)cc3)ncc2Cl)CC1 [Compound 151]		5340 nM		1030 nM	1410 nM			
189 nM	20.6 nM	O=C(NCc1ccc(Cl)nc1)c1cc(O[C@H]2CCN3C(=O)OC[C@@H]3C2)c(-c2cnn(C(F)F)c2)cn1 [Compound 86]		754 nM		1450 nM	825 nM			
43.9 nM	40.9 nM	O=C(NCc1ccc(Cl)cc1)c1cc(O[C@H]2CCN3C(=O)OC[C@@H]3C2)c(-c2ccn(CC(F)(F)F)n2)cn1 [Compound 14]		563 nM		319 nM	234 nM			
13.9 nM	13.9 nM	O=C(NCc1ccc(Cl)cc1)c1cc(O[C@H]2CCN3C(=O)OC[C@@H]3C2)c(-c2ccn(C(F)F)n2)cn1 [Compound 26]	4590 nM	280 nM	≥ 80200 nM	119 nM				
7.76 nM	≤ 0.444 nM	Cc1cc(-c2cnc(C(=O)NCc3ccc(Cl)cc3)cc2O[C@H]2CCN3C(=O)OC[C@@H]3C2)on1 [Compound 150]	144 nM	110 nM	78.2 nM					
14.3 nM	11.9 nM	C[C@H](NC(=O)c1cc(O[C@H]2CCN3C(=O)OC[C@@H]3C2)c(-c2cnn(C(F)F)c2)cn1)c1ccc(Cl)cc1 [Compound 81]	307 nM	312 nM	153 nM					
16 nM	9.02 nM	O=C(NCc1ccc([N+](=O)[O-])cc1)c1cc(O[C@H]2CCN3C(=O)OC[C@@H]3C2)c(-c2cnn(C(F)F)c2)cn1 [Compound 82]	243 nM	90.5 nM	125 nM					
8.5 nM	9.56 nM	COC/C=C/c1cnc(C(=O)NCc2ccc(Cl)cc2)cc1O[C@H]1CCN2C(=O)OC[C@@H]2C1 [Compound 155b]	395 nM	380 nM	263 nM	209 nM				
51.4 nM	38.7 nM	Cc1cnc(C(=O)NCc2ccc(Cl)cc2)cc1O[C@H]1CCN2C(=O)OC[C@@H]2C1 [Compound 68]	1080 nM	603 nM	689 nM	270 nM	126 nM			
86.3 nM	38.8 nM	O=C(NCc1ccc(F)c(F)c1F)c1cc(O[C@H]2CCN3C(=O)OC[C@@H]3C2)c(-c2cnn(C(F)F)c2)cn1 [Compound 87]		626 nM		378 nM	441 nM			
33 nM	13.3 nM	O=C(NCc1ccc(Cl)cc1)c1cc(O[C@H]2CCN3C(=O)OC[C@@H]3C2)c(CN2CCSCC2)cn1 [Compound 139]	1180 nM	417 nM		545 nM				

Structure (SMILES)	IC50 [1]	IC50 [2]	EC50 [3, 6]	EC50 [4, 7]	EC50 [5, 8]	EC50 [5, 9]	EC50 [3, 10]	EC50 ([3]; Human alphaherpesvirus 3, MeWo, read-out: VZV Cell (EC50) MEWO 10%)	EC50 ([4]; Human betaherpesvirus 5, AD169, MRC5, read-out: HCMV Cell (EC50))	EC50 ([5]; Human alphaherpesvirus 1, Vero, read-out: HSV1 Cell (EC50) VERO 10%)
COc1cnc(C(=O)NCc2ccc(Cl)cc2)cc1O[C@H]1CCN2C(=O)OC[C@@H]2C1 [Compound 129]	54 nM	18 nM						278 nM	546 nM	339 nM
